Data taken from publication PMC12295927, “Design, Synthesis, and Testing of 1,2,3-Triazolo-Quinobenzothiazine Hybrids for Cytotoxic and Immunomodulatory Activity” (International Journal of Molecular Sciences, 2025).
pIC50: −log10 of the molar value. Where two headings read alike, the source gives them in different places.

Key:
[1] = test system: BEAS-2B; assay: Alamar Blue cytotoxicity test, BEAS-2B; format: cell-based, Human; conditions: 24 h incubation, read-out: IC50 values for BEAS-2B line
Experimental: The cytotoxicity of the tested chemical compounds MJ1–MJ20 was tested using the Alamar Blue test. The experiment was conducted on cell lines BEAS-2B (Figure 7), HCT116 (Figure 8), U2OS (Figure 9), MCF7 (Figure 10), SH-SY5Y (Figure 11), NHDF (Figure 12), and A549 (Figure 13). Cells were seeded in 96-well plates and incubated with the tested compounds for 24 h. The test result is the IC50 parameter, which is a measure of cytotoxic activity expressed by the concentration of the substance that causes the death of half of the analyzed cells compared to the control.
In cytotoxicity studies, the Alamar Blue test was used, which is based on the ability of living cells to reduce the non-fluorescent dye resazurin to fluorescent resorufin, which reflects the metabolic activity of cells. BEAS-2B, NHDF, HCT116, MCF7, A549, SH-SY5Y and U2OS cell lines were cultured under standard conditions, in DMEM medium supplemented with 10% FBS and 1% penicillin/streptomycin, at 37 °C, 5% CO2 and 95% humidity. Cells were seeded in 96-well plates at 1 × 10^4 cells per well and incubated for 24 h. Then, the tested compounds (MJ1–MJ20) were added at different concentrations (from 6.25 µM to 100 µM). The control contained cells untreated with the tested compounds. After 24 h of incubation, 10 µL of Alamar Blue solution was added to each well and incubated for another 2–4 h under the same conditions. The signal was measured spectrophotometrically at wavelengths of 570 nm (for resorufin) and 600 nm (for resazurin) or optionally fluorimetrically, using an excitation maximum of 570 nm and an emission maximum of 585 nm. The results were presented as percentage of cell survival relative to the control, calculating the ratio of absorbance or fluorescence of the sample to the control value. The Alamar Blue assay, due to its sensitivity and non-toxicity, allows for an accurate assessment of metabolic activity and cell survival in response to the tested quinobenzothiazines.

[2] = test system: BCL2 gene; assay: RT-qPCR BCL2 gene expression in BEAS-2B; format: cell-based, Human; conditions: 24 h; for fold induction at 100 µM: Homo sapiens, reference gene RPL41, vs untreated control, read-out: Relative level of expression, BCL2 gene
Experimental: (§1) Real-time polymerase chain reaction was performed for the reference gene RPL41 (ribosomal protein L41) and the tested genes: BCL2, AIFM2, MDM2, IL6 and IL8. […] The BEAS-2B line was selected for the experiment. The expression level of selected genes was measured after 24 h of incubation with the tested substances MJ1–MJ20 at a concentration of 100 μM (Table 3).
The RT-qPCR experiment was performed for the BEAS-2B cell line. In this experiment, the BCL2 gene was studied, and RPL41 was used as the reference gene (Figure 14).
(§2) Gene expression studies used quantitative RT-qPCR to assess the effect of the tested quinobenzothiazines (MJ1–MJ20) on the expression of apoptosis-related genes (BCL2, AIFM2, MDM2) and pro-inflammatory cytokines (IL6, IL8) (Table 4).
(§3) BEAS-2B and HCT116 cells were seeded in 6-well plates at 2 × 10^5 cells per well and cultured in RPMI-1640 (BEAS-2B) or DMEM (HCT116) medium supplemented with 10% FBS and 1% penicillin/streptomycin at 37 °C, 5% CO2 and 95% humidity. After 24 h of incubation, the tested compounds were added at a concentration of 100 µM. After 24 h, the medium was removed from the cells, washed with PBS solution, 0.5 mL of trypsin was added per well and after 5 min it was neutralized with medium. The obtained cell suspension was centrifuged for 3 min at 2000 rpm, the supernatant was removed, and the obtained pellet was suspended in 400 µL of phenozol. Samples were frozen at −20 °C and stored until further experiment and RNA isolation.
(§4) Total RNA was isolated from cells using the A&A Biotechnology Total RNA Mini kit according to the manufacturer’s protocol. RNA quality and quantity were assessed using a NanoDrop 2000 spectrophotometer at 260/280 nm. Reverse transcription was performed using the protocol (EURx NG dART RT Kit) to obtain cDNA. After incubation, samples were placed in a freezer (−20 °C) and stored until further analysis.
(§5) The experiment was performed according to the protocol (Brilliant III Ultra Fast SYBR® Green QPCR Master Mix, Quick Reference Guide for the Bio-Rad CFX96 Real-Time PCR Detection System). RT-qPCR reaction was performed using specific primers for target genes (BCL2, AIFM2, MDM2, IL6, IL8). Gene expression was normalized to the expression of the reference gene RPL41. Reaction profiles and results were performed using Bio-Rad CFX Maestro 1.1 software from Bio-Rad. Analysis and calculations of the results obtained during RT-qPCR were performed using Microsoft Excel.
(§6) The results were analyzed using the R = 2^−ΔΔCt method, which allows for determining the relative level of gene expression (R) compared to the control. Each experiment was performed in three technical and biological replicates. RT-qPCR allowed for precise assessment of changes in the expression of genes related to the processes of apoptosis and inflammatory response under the influence of quinobenzothiazines, which allowed for identifying their potential mechanisms of action at the molecular level.

[3] = test system: MDM2 gene; assay: RT-qPCR MDM2 gene expression in BEAS-2B; format: cell-based, Human; conditions: 24 h; for fold induction at 100 µM: Homo sapiens, reference gene RPL41, vs untreated control, read-out: Relative level of expression, MDM2 gene
Experimental: as §1
The RT-qPCR experiment was performed for the BEAS-2B cell line. In this experiment, the MDM2 gene was studied and RPL41 was used as reference gene (Figure 15).
as §2, §3, §4, §5, §6

[4] = test system: AIFM2 gene; assay: RT-qPCR AIFM2 gene expression in BEAS-2B; format: cell-based, Human; conditions: Homo sapiens, 24 h, reference gene RPL41, vs untreated control, read-out: Relative level of expression, AIFM2 gene
Experimental: as §1
The RT-qPCR experiment was performed for the BEAS-2B cell line. In this experiment, the AIFM2 gene was studied and RPL41 was used as reference gene (Figure 16).
as §2, §3, §4, §5, §6

[5] = test system: IL6 gene; assay: RT-qPCR IL6 gene expression in BEAS-2B; format: cell-based, Human; conditions: 24 h; for fold induction at 100 µM: Homo sapiens, reference gene RPL41, vs untreated control, read-out: Relative level of expression, IL6 gene
Experimental: as §1
(§7) The RT-qPCR experiment was performed for the BEAS-2B cell line. In this experiment, the IL6 and IL8 genes were studied and RPL41 was used as a reference gene (Figure 17 and Figure 18).
as §2, §3, §4, §5, §6

[6] = test system: IL8 gene; assay: RT-qPCR IL8 gene expression in BEAS-2B; format: cell-based; conditions: Homo sapiens, 24 h, reference gene RPL41, vs untreated control, read-out: Relative level of expression, IL8 gene
Experimental: as §1, §7, §2, §3, §4, §5, §6

| Structure (SMILES) | pIC50 ([1]; Homo sapiens, 24 h) | fold induction at 100 µM [2] | fold induction at 100 µM [3] | fold induction at 100 µM [4] | fold induction at 100 µM [5] | fold induction at 100 µM [6] | MDM2 expression increase ([3]; 100 μM, compared to control) | pIC50 [1] | BCL2 expression increase ([2]; 100 μM, compared to control) | IL6 expression increase ([5]; 100 μM, compared to control) |
| --- | --- | --- | --- | --- | --- | --- | --- | --- | --- | --- |
| Fc1ccc2c(c1)Sc1cc3ccccc3nc1N2Cc1cn(CSc2ccccc2)nn1 [MJ10, 9-Fluoro-6-((1-((phenylthio)methyl)-1H-1,2,3-triazol-4-yl)methyl)-quino[3,2-b]-benzo[1,4]thiazine] | 4.14 | 10.6 | 3.6 | 3.1 | 5.6 | 5.7 |  |  |  |  |
| Clc1ccc(Cn2cc(CN3c4ccccc4Sc4cc5ccccc5nc43)nn2)cc1 [MJ3, 6-[(1-(4-Chlorobenzyl)-1H-1,2,3-triazol-4-yl)methyl]-quino[3,2-b]benzo[1,4]thiazine] | 4.12 | 5.7 | 5.9 | 1.3 | 1.3 | 0.3 |  |  |  |  |
| Clc1ccc(Cn2cc(CN3c4ccc(Cl)cc4Sc4cc5ccccc5nc43)nn2)cc1 [MJ13, 9-Chloro-6-[(1-(4-chlorobenzyl)-1H-1,2,3-triazol-4-yl)methyl]-quino[3,2-b]benzo-[1,4]thiazine] | 4.07 | 23.4 | 2.3 | 0.3 | 6.5 | 1.7 |  |  |  |  |
| CSc1ccc2c(c1)Sc1cc3ccccc3nc1N2Cc1cn(Cc2ccc(F)cc2)nn1 [MJ17, 9-Methylthio-6-((1-(4-fluorobenzyl)-1H-1,2,3-triazol-4-yl)methyl)-quino[3,2-b]-benzo[1,4]thiazine] | 4.14 | 33.9 | 11 | 2.5 | 28 | 5.7 | 11.0 fold |  |  |  |
| Fc1ccc(Cn2cc(CN3c4ccc(F)cc4Sc4cc5ccccc5nc43)nn2)cc1 [MJ7, 9-Fluoro-6-((1-(4-fluorobenzyl)-1H-1,2,3-triazol-4-yl)methyl)-quino[3,2-b]benzo[1,4]thiazine] | 4.13 | 7.5 | 4.6 | 3.3 | 3.5 | 2.6 |  |  |  |  |
| c1ccc(SCn2cc(CN3c4ccccc4Sc4cc5ccccc5nc43)nn2)cc1 [MJ5, 6-((1-((Phenylthio)methyl)-1H-1,2,3-triazol-4-yl)methyl)-quino[3,2-b]benzo[1,4]thiazine] | 4.14 | 5 | 4.8 | 1.9 | 2.7 | 0.1 |  |  |  |  |
| Fc1ccc(Cn2cc(CN3c4ccc(Cl)cc4Sc4cc5ccccc5nc43)nn2)cc1 [MJ12, 9-Chloro-6-((1-(4-fluorobenzyl)-1H-1,2,3-triazol-4-yl)methyl)-quino[3,2-b]benzo-[1,4]thiazine] | 4.12 | 25.9 | 3.8 | 0.6 | 6.2 | 4.9 |  | 4.12 |  |  |
| N#Cc1ccc(Cn2cc(CN3c4ccc(Cl)cc4Sc4cc5ccccc5nc43)nn2)cc1 [MJ14, 4-((4-((9-Chloroquino[3,2-b]benzo[1,4]thiazin-6-yl)methyl)-1H-1,2,3-triazol-1-yl)methyl)-benzonitrile] | 4.11 | 43 | 3.7 | 1.2 | 8.8 | 3.6 |  |  |  |  |
| CSc1ccc2c(c1)Sc1cc3ccccc3nc1N2Cc1cn(CSc2ccccc2)nn1 [MJ20, 9-Methylthio-6-((1-((phenylthio)methyl)-1H-1,2,3-triazol-4-yl)methyl)-quino[3,2-b]benzo[1,4]thiazine] | 4.08 | 69.4 | 7.7 | 2.8 | 83.4 | 6.6 |  |  | 69.4 fold | 83.4 fold |
| Clc1ccc2c(c1)Sc1cc3ccccc3nc1N2Cc1cn(Cc2ccccc2)nn1 [MJ11, 9-Chloro-6-[(1-benzyl-1H-1,2,3-triazol-4-yl)-methyl]-quino[3,2-b]benzo[1,4]thiazine] | 4.06 | 49.9 | 4.6 | 0.8 | 5.7 | 1.4 |  |  |  |  |
| CSc1ccc2c(c1)Sc1cc3ccccc3nc1N2Cc1cn(Cc2ccc(Cl)cc2)nn1 [MJ18, 9-Methylthio-6-[(1-(4-chlorobenzyl)-1H-1,2,3-triazol-4-yl)methyl]-quino[3,2-b]-benzo[1,4]thiazine] | 4.13 | 41.5 | 7.1 | 1.7 | 20.5 | 4 |  |  |  |  |
| CSc1ccc2c(c1)Sc1cc3ccccc3nc1N2Cc1cn(Cc2ccccc2)nn1 [MJ16, 9-Methylthio-6-[(1-benzyl-1H-1,2,3-triazol-4-yl)-methyl]-quino[3,2-b]benzo[1,4]thiazine] | 4.07 | 41.3 | 6.1 | 1.3 | 11.4 | 5.1 |  |  |  |  |
| N#Cc1ccc(Cn2cc(CN3c4ccccc4Sc4cc5ccccc5nc43)nn2)cc1 [MJ4, 4-((4-((Quino[3,2-b]benzo[1,4]thiazin-6-yl)methyl)-1H-1,2,3-triazol-1-yl)methyl)benzonitrile] | 4.19 | 9.3 | 4.3 | 1.4 | 3.1 | 0.8 |  |  |  |  |
